# Data as given in US20060153785A1, “Moisturizers comprising one or more of gamma-polyglutamic acid (gamma-PGA, H form), gamma-polyglutamates and gamma-polyglutamate hydrogels for use in cosmetic or personal care products” (priority 2005, published 2006).
# Tests used:
# [1] = tested on: outside skin surface of the arm of a test panelist; assay: Moisture retention of skin after peeling off facial moisture mask (capacitance, SHP88); format: in vivo, human (panelists); settings: 5.0% moisturizer in facial moisture mask; mask film peeled off after 15 minutes; 23° C., RH 65%
# Protocol: The species and proportions of the ingredients contained in the exemplified facial moisture mask formulation are listed in Table 5.
# The samples of 0.2 grams from experimental example 4 were taken and evenly spread over an area of 25 cm^2 on the outside skin surface of the arm of a test panelist, and the film formation time was closely observed and recorded (see Characteristic Properties of N-Carboxybutyl Chitosan. Carbohydr. Polym. 11:307-320, 1989, Muzzarelli, R. A. A. et al.) at 23° C. under an environment of relative humidity (RH) of 65%. A group of 10 panelists participated in this test. In a separate experiment, the mask film formed after 15 minutes was peeled off, then the […] of the skin was measured at 23° C. under an environment of relative humidity of 65% with a probe of the Skin Analysis SHP88 of Courage ^+Khazaka Electronic Gmbh, Germany. The moisture retention of the skin was immediately measured at 23° C. under an environment of relative humidity of 65% with a probe of the Skin Analysis SHP88, and expressed in unit of capacitance increase ratio, %.
# [2] = tested on: tyrosinase; assay: Inhibition of tyrosinase activity (absorbency at 475 nm); format: biochemical; settings: 1.0% sample
# Protocol: Although the formation of black pigment melanin on skin is complicated, it is generally realized that tyrosine is oxidized to DOPA (Dihydroxy Phenyalanine) by the catalysis of tyrosinase from melansome of melanocyte. The DOPA is further oxidized and finally converted into colored melanin-protein complex. […] Determination of total absorbency at wavelength of 475 nm: To a 25 ml sample test tube, add 0.9 ml of 0.1M phosphate buffer solution (pH 6.8), 1 ml of γ-polyglutamate (Na^+ form) sample and 1 ml of 0.25 mg/ml tyrosine solution and mix well, then incubate at 37° C. for 10 minutes. […] Sample of the reaction solution is then taken for measuring the absorbency at 475 nm, and recorded as At. • b. Determination of the blank absorbance of tyrosinase solutuion: Replace 0.1 ml of buffer solution with tyrosinase solution, and repeat the same procedure in item (a), and record the absorbency at 475 nm as A1. • c. Replace 1 ml sample solution with buffer solution, and repeat the same procedure in item (a), and record the absorbance at 475 nm as Ab. • d. Determination of total blank absorbance of test solution: Replace 1 ml sample solution with buffer solution, and 0.1 ml of tyrosinase solution with buffer solution, and repeat the procedure in item (a), and record the absorbency at 475 nm as Ao. • e. […]
# [3] = tested on: inside skin surface of a test panelist's arm; assay: Water retention on skin after skin vital moisture cream (capacitance, Skin Analysis SHP88); format: in vivo, human (panelists); settings: 5% moisturizer in cream
smiles,measurement,setting,value
"CC(O)CCO (stereo not shown) [1,3-BG, 1,3-Butyl Glycol]",Capacitance Increase Ratio,[1],73.2%
O=c1cc(CO)occ1O [Kojic Acid],Inhibition of Tyrosinase Activity,[2],100.0%
CC(O)CO (stereo not shown) [Propylene Glycol],Capacitance Increase Ratio,[3]; time 0 min,0%
same,Capacitance Increase Ratio,[3]; time 5 min,105%
same,Capacitance Increase Ratio,[3]; time 10 min,57%
same,Capacitance Increase Ratio,[3]; time 20 min,51%
same,Capacitance Increase Ratio,[3]; time 40 min,40%
same,Capacitance Increase Ratio,[3]; time 80 min,38%
same,Capacitance Increase Ratio,[3]; time 120 min,36%
O=C1O[C@H]([C@@H](O)CO)C(O)=C1O [Vitamin C],Inhibition of Tyrosinase Activity,[2],99.4%
